{
  "source": "patent US20050159432A1",
  "about": "“Short form c-Maf transcription factor antagonists for treatment of glaucoma” (Alcon, Inc., priority 2003, published 2005)",
  "key": {"[1]": {"test_system": "short-form c-Maf gene expression", "experiment": "QPCR analysis of short-form c-Maf gene expression in SGTM2697 glaucomatous trabecular meshwork cells", "type": "cell-based, Human", "text": "(§1) Human trabecular meshwork (TM) cells were derived from donor eyes (Central Florida Lions Eye and Tissue Bank, Tampa, Fla.) and cultured as previously described (Steely, et al. (1992), Invest Ophthalmol Vis Sci 33(7): 2242-50; Wilson, et al. (1993), Curr Eye Res 12(9): 783-93; Clark, et al. (1994), Invest Ophthalmol Vis Sci 35(1): 281-94.; Dickerson, et al. (1998), Exp Eye Res 66(6): 731-8; Wang, et al. (2001), Mol Vis 7: 89-94). TM cells were derived from pools of four each of either normal or glaucoma cell lines. Total RNA was isolated from TM cells from each pool using TRIZOL® reagent according to the manufacturer's instructions (Invitrogen, Carlsbad, Calif.).\nFirst strand cDNA was generated from 1 μg of total RNA using random hexamers and TAQMAN® Reverse Transcription reagents according to the manufacturer's instructions (Applied Biosystems, Foster City, Calif.). The 100 μl reaction was subsequently diluted 20-fold to achieve an effective cDNA concentration of 0.5 ng/μl.\nMeasurement of short form c-Maf gene expression was performed by quantitative real-time RT-PCR (QPCR) using an ABI PRISM® 7700 Sequence Detection System (Applied Biosystems) essentially as described Shepard, et al. (2001) Invest Ophthalmol Vis Sci 42(13): 3173-81. Primers for short form-specific c-Maf amplification (Genbank accession #AF055376) were designed using PRIMER EXPRESS® software (Applied Biosystems). Forward and reverse primer sequences were […], SEQ ID NO:1, (nucleotides 3773-3799) and […], SEQ ID NO:2, (nucleotides 3823-3847), and the minor groove binding probe sequence was CTGCAAGCATATAATACA, SEQ ID NO:3, (nucleotides 3801-3818). 6FAM was bound to the 5′ end of the minor groove binding probe and refers to the type of fluorophore attached to the TAQMAN® probe. Other choices for the fluorophore are the JOE™ Fluorophore (Applied Biosystems) or VIC™ fluorophore (Applied Biosystems). The “Minor Groove Binding Non-Fluorescent Quencher” was bound to the 3′ end of the probe and is used to quench the fluorescence from 6FAM. […] Quantification of relative cDNA concentrations was done using the relative standard curve method as described in PE Biosystems User Bulletin #2, ABI PRISM® 7700 Sequence Detection System, 2001 (Applied BioSystems). […]\nShort form c-Maf gene expression was analyzed using the Affymetrix U133A GENECHIP® analysis described in Example 2 of a pool of glaucomatous trabecular meshwork cells designated SGTM2697. […]\nThe effect of small molecule inhibition on short-form c-Maf gene expression was analyzed by QPCR analysis as described in Example 2 in glaucomatous trabecular meshwork (Passage 6) cells designated SGTM2697. […]"}, "[2]": {"test_system": "short-form c-Maf gene expression", "experiment": "QPCR analysis of short-form c-Maf gene expression in TM70A trabecular meshwork cells", "type": "cell-based, Human", "conditions": "10^−7 M dexamethasone, c-Maf/18S normalized ratio, n=3", "text": "as §1, with “Calif.). […]” for “Calif.).”\nMeasurement of short form c-Maf gene expression was performed by quantitative real-time RT-PCR (QPCR) using an ABI PRISM® 7700 Sequence Detection System (Applied Biosystems) essentially as described Shepard, et al. (2001) Invest Ophthalmol Vis Sci 42(13): 3173-81. […] The “Minor Groove Binding Non-Fluorescent Quencher” was bound to the 3′ end of the probe and is used to quench the fluorescence from 6FAM. […] Quantification of relative cDNA concentrations was done using the relative standard curve method as described in PE Biosystems User Bulletin #2, ABI PRISM® 7700 Sequence Detection System, 2001 (Applied BioSystems). […]"}},
  "data": [
    {"molecule": "CC(C)[C@H](CO)Nc1nc(Nc2cccc(Cl)c2)c2ncn(C(C)C)c2n1", "note": "[purvalanol A, 2-(1R-Isopropyl-2-hydroxyethylamino)-6-(3-chloroanilino)-9-isopropylpurine]", "values": [
      {"measurement": "effect on TGFβ2-induced c-Maf expression", "setting": "[1]; SGTM2697 (Passage 6) cells, co-treatment with 5 ng/ml TGFβ2, 16 hours, n=6", "value": "completely abolished"},
      {"measurement": "basal c-Maf levels downregulated", "setting": "[1]; SGTM2697 (Passage 6) cells, without TGFβ2, 16 hours, n=6", "value": 2.6, "unit": "fold"}
    ]},
    {"molecule": "C[C@@H]1C[C@H]2[C@@H]3CCC4=CC(=O)C=C[C@]4(C)[C@@]3(F)[C@@H](O)C[C@]2(C)[C@@]1(O)C(=O)CO", "note": "[dexamethasone]", "values": [
      {"measurement": "short form c-Maf upregulated compared to control, day one", "setting": "[2]; 1 day", "value": 2.1, "unit": "fold"},
      {"measurement": "short form c-Maf upregulated compared to control, day 14", "setting": "[2]; 14 days", "value": 3.2, "unit": "fold"}
    ]},
    {"molecule": "TGFβ2: transforming growth factor beta 2, used for induction of gene expression (protein, UniProt P61812 303-414, looked up) Transforming growth factor …: ALDAAYCFRNVQDNCCLRPLYIDFKRDLGWKWIHEPKGYNANFCAGACPYLWSSDTQHSRVLSLYNTINPEASASPCCVSQDLEPLTILYYIGKTPKIEQLSNMIVKSCKCS", "values": [
      {"measurement": "short-form c-Maf upregulated by TGFβ2", "setting": "[1]; SGTM2697 (Passage 6) cells, 5 ng/ml TGFβ2, 16 hours, n=6", "value": 17, "unit": "fold"},
      {"measurement": "short form c-Maf upregulated compared to control", "setting": "[1]; pooled SGTM2697 cells, 5 ng/ml TGFβ2, 16 hours, c-Maf/18S normalized ratio, n=3", "value": 16, "unit": "fold"}
    ]}
  ]
}
